Results published in paper PMC10895678 (Journal of Medicinal Chemistry, 2024).

Assays:
M. tuberculosis H37Rv = assay: Mycobacterial time kill experiments (total viable counts); format: cell-based, Mycobacterium tuberculosis; conditions: 29 μM, by day 10, to limit of detection (100 CFU mL^–1)
BCG pTIC6-fbpA = format: cell-based, Mycobacterium bovis BCG
BCG pTIC6-fbpC = format: cell-based, Mycobacterium bovis BCG
BCG pTIC6-fbpB = format: cell-based, Mycobacterium bovis BCG
M. bovis BCG = assay: microbe, parasite or virus in culture; format: cell-based, Mycobacterium bovis BCG
M. smegmatis = assay: MIC determination, resazurin end point assay, M. smegmatis; format: cell-based, Mycobacterium smegmatis

Molecule: NNC(=O)c1ccncc1 [Isoniazid, reference compound]
- reduction of total viable count (M. tuberculosis H37Rv): > 4.52 ± 0.60 log10 CFU mL^–1

Molecule: O=c1c2ccccc2[se]n1-c1ccccc1 [Ebselen, reference compound]
- BCG pTIC6-fbpA MIC (BCG pTIC6-fbpA): 28 µM
- shift in MIC upon overexpression of FbpA (BCG pTIC6-fbpA): No shift in MIC
- BCG pTIC6-fbpC MIC (BCG pTIC6-fbpC): 98 µM
- increase in MIC upon overexpression of FbpC (BCG pTIC6-fbpC): three-fold increase
- BCG pTIC6-fbpB MIC (BCG pTIC6-fbpB): 90 µM
- increase in MIC upon overexpression of FbpB (BCG pTIC6-fbpB): three-fold increase

Molecule: (rac)-1-(((2,4-cis)-1-(2-bromobenzyl)-4-phenylazetidin-2-yl)methyl)-4-(4-(trifluoromethyl)phenyl)piperidine [BGAz-016]
- BCG MIC99 (M. bovis BCG; resazurin end point assay, modified Gompertz function, three biological replicates): 60 µM
- MIC50 BCG (M. bovis BCG; supplementary MIC data file): 48 µM
- MIC99 BCG (M. bovis BCG; supplementary MIC data file): 60 µM
- MIC99 (M. smegmatis; resazurin end point assay, modified Gompertz function, three biological replicates, read-out: M. smeg. MIC99): 100 µM
- MIC50 smegmatis (M. smegmatis; supplementary MIC data file): 34 µM
- MIC99 smegmatis (M. smegmatis; supplementary MIC data file): > 100 µM
